Ten compounds from ChEMBL document CHEMBL1201862, “PubChem BioAssay data set” (2004) can be followed below.

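All cell lines were grown in 96-well plates and treated with compound for 48 hours. GI50 marks 50% less growth.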 The source made the active and inactive calls. No stated cut-off is given here; in the data, active = GI50 up to about 1.1 µM and inactive = higher. A value given as a limit tells only on which side of the number the result lay.

Some test systems named below: SK-OV-3; CAKI-1; SK-MEL-28; UO-31; SK-MEL-2; HCT-15; SR; TK-10; NCI-H23; HT-29; SF-539; OVCAR-3; UACC-62; CCRF-CEM; NCI-H460; SNB-19; MOLT-4; NCI-H522; SF-295; LOX IMVI.
What all share (experiment): NCI-60 cell line screen, 48 h

In the case of `Oc1ccnc(SCc2ccc(Cl)cc2)n1`, the GI50 in the assay with SK-OV-3 was > 100 µM (inactive); in the assay on CAKI-1, > 100 µM (inactive); in the assay with SK-MEL-28, > 100 µM (inactive); in the assay with UO-31, > 100 µM (inactive); with SK-MEL-2, > 100 µM (inactive); with HCT-15 it was more than 100 µM. Further, the GI50 in the assay on SR was > 100 µM (inactive); in the assay with TK-10 it was > 100 µM (inactive); in the assay on NCI-H23 it was > 100 µM (inactive); in the assay with HT-29, > 100 µM (inactive); in the assay on SF-539 it was > 100 µM (inactive); in the assay with OVCAR-3, 57.3 µM (inactive). For the same compound, the GI50 was > 100 µM (inactive) in the assay on UACC-62; > 100 µM (inactive) in the assay on CCRF-CEM; > 100 µM (inactive) in the assay with NCI-H460; > 100 µM (inactive) in the assay on SNB-19; 63.7 µM (inactive) in the assay on MOLT-4; 62.2 µM (inactive) in the assay on NCI-H522. The GI50 in the assay on SF-295 was 87.1 µM (inactive); in the assay with LOX IMVI it was > 100 µM (inactive).

Turning to `O=C1C=C(OCCCl)C(=O)c2c(O)ccc(O)c21`, the GI50 with SK-OV-3 is 1.71 µM (inactive); in the assay with CAKI-1, 2.03 µM (inactive); in the assay on SK-MEL-28, 0.172 µM (active); in the assay with UO-31, 1.42 µM (inactive); in the assay on SK-MEL-2, 0.478 µM (active); in the assay on HCT-15, 0.209 µM. Also, the GI50 is 0.861 µM (active) in the assay on SR; 2.38 µM (inactive) in the assay on TK-10; 0.242 µM (active) in the assay with NCI-H23; 0.378 µM (active) in the assay with HT-29; 1.36 µM (inactive) in the assay on SF-539; 1.06 µM (active) in the assay with OVCAR-3. The GI50 was 0.228 µM (active) in the assay with UACC-62; 0.469 µM (active) in the assay on CCRF-CEM; 0.395 µM (active) with NCI-H460; 1.02 µM (active) in the assay with SNB-19; 1.72 µM (inactive) with MOLT-4; 2.32 µM (inactive) in the assay with NCI-H522. For the same compound, the GI50 with SF-295 is 1.56 µM (inactive); in the assay on LOX IMVI it was 0.202 µM (active).

With `O=c1cccc(Cl)[nH]1`, the GI50 in the assay with SK-OV-3 is > 100 µM (inactive); in the assay on CAKI-1, > 100 µM (inactive); in the assay with SK-MEL-28, > 100 µM (inactive); with UO-31, > 100 µM (inactive); with SK-MEL-2 it was > 100 µM (inactive); in the assay with HCT-15, more than 100 µM. Besides, the GI50 with SR, in the assay with TK-10, with NCI-H23, with HT-29, in the assay on SF-539 and in the assay with OVCAR-3 was > 100 µM (inactive) throughout. In addition, the GI50 in the assay with UACC-62, with CCRF-CEM, in the assay with NCI-H460, in the assay with SNB-19, in the assay on MOLT-4 and with NCI-H522 was > 100 µM (inactive) each time. Moreover, the GI50 in the assay with SF-295 and with LOX IMVI was > 100 µM (inactive) throughout.

Consider `O=C(c1ccsc1)c1cc2c(s1)C(=O)c1ccsc1C2=O`, for which the GI50 is 1.61 µM (inactive) in the assay on SK-OV-3; 0.499 µM (active) in the assay on CAKI-1; 0.142 µM (active) in the assay on SK-MEL-28; 0.0893 µM (active) in the assay with UO-31; 0.281 µM (active) in the assay with SK-MEL-2; 0.155 µM in the assay on HCT-15. In addition, the GI50 in the assay on SR is 1.87 µM (inactive); in the assay with TK-10, 0.64 µM (active); with NCI-H23, 0.137 µM (active); in the assay on HT-29, 0.676 µM (active); in the assay on SF-539, 0.0671 µM (active); in the assay on OVCAR-3 it was 0.0624 µM (active). Also, the GI50 with UACC-62 is 0.194 µM (active); in the assay on CCRF-CEM it was 0.155 µM (active); with NCI-H460, 0.184 µM (active); with SNB-19 it was 0.177 µM (active); with MOLT-4, 0.435 µM (active); in the assay with NCI-H522, 0.137 µM (active). Besides, the GI50 in the assay on SF-295 was 0.174 µM (active); in the assay with LOX IMVI, 0.0211 µM (active).

For `C=C(CCC/C(C)=C/C=C/[C@@H](C)CCCc1ccoc1)C[C@@H]1OC(=O)[C@H](C)[C@@H]1O`, the GI50 with SK-OV-3 was 7.46 µM (inactive); in the assay on CAKI-1 it was 9.91 µM (inactive); with SK-MEL-28, 10.1 µM (inactive); with UO-31, 7.85 µM (inactive); in the assay with SK-MEL-2, 8.18 µM (inactive); in the assay on HCT-15, 10.1 µM. Also, the GI50 was 10.7 µM (inactive) in the assay with SR; 13.1 µM (inactive) in the assay with TK-10; 8.09 µM (inactive) in the assay on NCI-H23; > 50 µM (inactive) in the assay on HT-29; 8.17 µM (inactive) in the assay with SF-539; 7.13 µM (inactive) with OVCAR-3. Besides, the GI50 was 5.27 µM (inactive) with UACC-62; 9.89 µM (inactive) with CCRF-CEM; 11 µM (inactive) with NCI-H460; 9.25 µM (inactive) with SNB-19; 16.1 µM (inactive) in the assay on MOLT-4; 7.08 µM (inactive) in the assay with NCI-H522. Besides, the GI50 with SF-295 is 7.6 µM (inactive); in the assay with LOX IMVI, 9.71 µM (inactive).

With `CCOc1ccc(C2Oc3c(cccc3OC)C=C2[N+](=O)[O-])cc1OCC` (stereo not given), the GI50 is 27.5 µM (inactive) in the assay with SK-OV-3; 2.94 µM (inactive) with CAKI-1; 2.24 µM (inactive) in the assay with SK-MEL-28; 2.64 µM (inactive) with UO-31; 5.64 µM (inactive) in the assay with SK-MEL-2; 4.86 µM with HCT-15. Moreover, the GI50 in the assay on SR was 1.62 µM (inactive); with TK-10, 15.5 µM (inactive); in the assay with NCI-H23 it was 6.67 µM (inactive); in the assay with HT-29, 2.86 µM (inactive); in the assay with SF-539, 2.39 µM (inactive); in the assay with OVCAR-3 it was 4.91 µM (inactive). The GI50 in the assay with UACC-62 is 5.32 µM (inactive); with CCRF-CEM, 1.35 µM (inactive); with NCI-H460 it was 7.28 µM (inactive); in the assay with SNB-19, 15.2 µM (inactive); in the assay on MOLT-4, 4.22 µM (inactive); in the assay on NCI-H522 it was 1.84 µM (inactive). The GI50 with SF-295 was 15.3 µM (inactive); with LOX IMVI it was 1.97 µM (inactive).

As for `O=c1oc2ccc([N+](=O)[O-])cc2c(Nc2ccc3c(c2)S(=O)(=O)c2ccccc2O3)c1[N+](=O)[O-]`, the GI50 was > 100 µM (inactive) in the assay with SK-OV-3; > 100 µM (inactive) with CAKI-1; 46.3 µM (inactive) in the assay with SK-MEL-28; 53.3 µM (inactive) in the assay on UO-31; 52.2 µM (inactive) in the assay on SK-MEL-2; 83 µM in the assay on HCT-15. The GI50 in the assay with SR was 32.4 µM (inactive); in the assay on TK-10, > 100 µM (inactive); in the assay on NCI-H23 it was > 100 µM (inactive); in the assay with HT-29 it was 65.9 µM (inactive); in the assay on SF-539 it was 46.8 µM (inactive); in the assay on OVCAR-3, 69.3 µM (inactive). Moreover, the GI50 in the assay with UACC-62 is 43.8 µM (inactive); in the assay with CCRF-CEM, 38.3 µM (inactive); in the assay on NCI-H460, 98.4 µM (inactive); in the assay on SNB-19, 77.1 µM (inactive); in the assay on MOLT-4, 40.1 µM (inactive); in the assay on NCI-H522 it was 87.1 µM (inactive). In addition, the GI50 with SF-295 is 60.4 µM (inactive); in the assay on LOX IMVI, 78.2 µM (inactive).

`Cc1nc(Nc2ccc([N+](=O)[O-])cc2)sc1C(/C=C/c1ccc(N(C)C)cc1)=N/NC(=O)c1ccccc1`: the GI50 in the assay on SK-OV-3 was > 100 µM (inactive); in the assay on CAKI-1, > 100 µM (inactive); in the assay on SK-MEL-28, > 100 µM (inactive); in the assay with UO-31 it was 89.3 µM (inactive); in the assay with SK-MEL-2 it was 92 µM (inactive); in the assay on HCT-15, 29.6 µM. Besides, the GI50 in the assay on SR was 41.7 µM (inactive); with TK-10, 52.8 µM (inactive); with NCI-H23, 47.8 µM (inactive); with HT-29, 39.1 µM (inactive); in the assay with SF-539, 42.9 µM (inactive); in the assay on OVCAR-3, > 100 µM (inactive). Further, the GI50 in the assay on UACC-62 was 4.84 µM (inactive); in the assay on CCRF-CEM it was 38.3 µM (inactive); in the assay on NCI-H460, 59.6 µM (inactive); in the assay with SNB-19 it was 62.2 µM (inactive); with MOLT-4, 41.9 µM (inactive); in the assay on NCI-H522, 31 µM (inactive). In addition, the GI50 in the assay on SF-295 was 56 µM (inactive); with LOX IMVI, 36.6 µM (inactive).

Regarding `Cc1c(Cl)cccc1N1C(=O)C(Cl)=C(Cl)C1=O`, the GI50 in the assay on SK-OV-3 is > 100 µM (inactive); with CAKI-1 it was > 51.8 µM (inactive); with SK-MEL-28 it was > 100 µM (inactive); with UO-31, > 100 µM (inactive); with SK-MEL-2, > 100 µM (inactive); in the assay on HCT-15 it was more than 76.9 µM. The GI50 is 34.2 µM (inactive) with SR; > 100 µM (inactive) in the assay with TK-10; > 100 µM (inactive) with NCI-H23; > 100 µM (inactive) in the assay with HT-29; > 100 µM (inactive) with SF-539; > 100 µM (inactive) with OVCAR-3. Besides, the GI50 in the assay with UACC-62 was > 100 µM (inactive); with CCRF-CEM, 16.4 µM (inactive); in the assay on NCI-H460 it was > 100 µM (inactive); in the assay with SNB-19 it was > 100 µM (inactive); in the assay on MOLT-4, 17.1 µM (inactive); in the assay on NCI-H522 it was 13.5 µM (inactive). For the same compound, the GI50 with SF-295 and with LOX IMVI was > 100 µM (inactive) in each case.

As for `O=C(CBr)NCCc1c[nH]c2ccccc12`, the GI50 was 2.67 µM (inactive) in the assay with SK-OV-3; 0.776 µM (active) in the assay with CAKI-1; 3.49 µM (inactive) with SK-MEL-28; 1.72 µM (inactive) in the assay on UO-31; 1.92 µM (inactive) in the assay on SK-MEL-2; 1.76 µM with HCT-15. In addition, the GI50 with SR was 0.344 µM (active); with TK-10 it was 1.86 µM (inactive); with NCI-H23, 1.46 µM (inactive); with HT-29 it was 1.83 µM (inactive); in the assay with SF-539, 1.81 µM (inactive); with OVCAR-3 it was 1.92 µM (inactive). Also, the GI50 in the assay with UACC-62 is 1.75 µM (inactive); in the assay on CCRF-CEM, 0.174 µM (active); in the assay on NCI-H460 it was 6.44 µM (inactive); with SNB-19 it was 6.17 µM (inactive); in the assay on MOLT-4, 0.406 µM (active); in the assay with NCI-H522, 0.229 µM (active). The GI50 in the assay on SF-295 is 13.7 µM (inactive); with LOX IMVI it was 0.482 µM (active).
